Test results reported in PubChem BioAssay (NCI).
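Briefly, cells in 96-well plates were exposed to five compound concentrations for 48 h, and endpoints were estimated by linear interpolation. Definition used: TGI = concentration required for complete inhibition of growth.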

Columns and labels:
Assay in all cases: NCI-60 cell line screen, 48 h
[1] = tested on: KM12 colon
[2] = tested on: IGROV1 ovarian
[3] = tested on: SF-539 CNS
[4] = tested on: OVCAR-4 ovarian
[5] = tested on: CAKI-1 renal
[6] = tested on: MDA-N
[7] = tested on: RPMI-8226 leukemia
[8] = tested on: ACHN renal
[9] = tested on: HCT-116 colon
[10] = tested on: A549 NSCLC
[11] = tested on: MCF7 breast
[12] = tested on: OVCAR-5 ovarian
[13] = tested on: HS 578T breast
[14] = tested on: MDA-MB-435
[15] = tested on: A498 renal
[16] = tested on: SNB-75 CNS
[17] = tested on: U251 CNS
[18] = tested on: OVCAR-8 ovarian
[19] = tested on: SK-MEL-2 melanoma
[20] = tested on: SF-268 CNS
[21] = tested on: SN12C renal
[22] = tested on: TK-10 renal
[23] = tested on: HT29 colon
[24] = tested on: OVCAR-3 ovarian
[25] = tested on: MOLT-4 leukemia
[26] = tested on: HL-60(TB) leukemia
[27] = tested on: K-562 leukemia
[28] = tested on: NCI-H23 lung
[29] = tested on: HOP-62 NSCLC
[30] = tested on: NCI-H226 lung
[31] = tested on: SW-620 colon
[32] = tested on: RXF 393 renal
[33] = tested on: BT-549 breast
[34] = tested on: EKVX NSCLC
[35] = tested on: MALME-3M melanoma
[36] = tested on: SF-295 CNS
[37] = tested on: HCC-2998 colon
[38] = tested on: 786-0 renal
[39] = tested on: NCI-H522 lung
[40] = tested on: NCI-H460 lung
[41] = tested on: SK-MEL-5 melanoma
[42] = tested on: SR leukemia
[43] = tested on: DU-145 prostate
[44] = tested on: LOX IMVI melanoma
[45] = tested on: CCRF-CEM leukemia
[46] = tested on: COLO 205 colon
[47] = tested on: HOP-92 NSCLC
[48] = tested on: MDA-MB-231 breast
[49] = tested on: UO-31 renal
[50] = tested on: PC-3 prostate
[51] = tested on: HCT-15 colon
[52] = tested on: UACC-257 melanoma
[53] = tested on: NCI/ADR-RES ovarian
[54] = tested on: SK-MEL-28 melanoma
[55] = tested on: SK-OV-3 ovarian
[56] = tested on: T-47D breast
[57] = tested on: SNB-19 CNS
[58] = tested on: UACC-62 melanoma
[59] = tested on: M14 melanoma

CNC(=O)OCc1cnc([N+](=O)[O-])n1C was tested, and the TGI [1] was > 100 µM, the TGI [2] was > 100 µM and the TGI [3] was > 100 µM. For the same compound, the TGI [4] was > 100 µM, the TGI [5] was > 100 µM and the TGI [6] was > 100 µM. The TGI [7] was > 100 µM, the TGI [8] was > 100 µM and the TGI [9] was > 100 µM. The TGI [10] was > 100 µM, the TGI [11] was > 100 µM and the TGI [12] was > 100 µM. The TGI [13] was > 100 µM, the TGI [14] was > 100 µM and the TGI [15] was > 100 µM. For the same compound, the TGI [16] was > 100 µM, the TGI [17] was > 100 µM and the TGI [18] was > 100 µM. For the same compound, the TGI [19] was > 100 µM, the TGI [20] was > 100 µM and the TGI [21] was > 100 µM. For the same compound, the TGI [22] was > 100 µM, the TGI [23] was > 100 µM and the TGI [24] was > 100 µM. The TGI [25] was > 100 µM, the TGI [26] was > 100 µM and the TGI [27] was > 100 µM. For the same compound, the TGI [28] was > 100 µM, the TGI [29] was > 100 µM and the TGI [30] was > 100 µM. For the same compound, the TGI [31] was > 100 µM, the TGI [32] was > 100 µM and the TGI [33] was > 100 µM. For the same compound, the TGI [34] was > 100 µM, the TGI [35] was > 100 µM and the TGI [36] was > 100 µM. The TGI [37] was > 100 µM, the TGI [38] was > 100 µM and the TGI [39] was > 100 µM. The TGI [40] was > 100 µM, the TGI [41] was > 100 µM and the TGI [42] was > 100 µM. The TGI [43] was > 100 µM, the TGI [44] was > 100 µM and the TGI [45] was > 100 µM. For the same compound, the TGI [46] was > 100 µM, the TGI [47] was > 100 µM and the TGI [48] was > 100 µM. For the same compound, the TGI [49] was > 100 µM, the TGI [50] was > 100 µM and the TGI [51] was > 100 µM. The TGI [52] was > 100 µM, the TGI [53] was > 100 µM and the TGI [54] was > 100 µM.

With O=C(Nc1ccn(C2CC(O)C(COC(c3ccccc3)(c3ccccc3)c3ccccc3)O2)c(=O)n1)c1ccccc1 (centres undefined) the TGI [1] was 17.9 µM, the TGI [2] was 6.12 µM and the TGI [3] was 8.49 µM. For the same compound, the TGI [55] was 28.3 µM, the TGI [4] was 7.88 µM and the TGI [5] was 18.4 µM. It also gave a TGI [6] of 3.99 µM, a TGI [7] of 5.2 µM and a TGI [8] of 9.31 µM. For the same compound, the TGI [9] was 4.29 µM, the TGI [10] was 16.7 µM and the TGI [11] was 8.39 µM. It also gave a TGI [12] of 3.53 µM, a TGI [13] of 5.91 µM and a TGI [14] of 5.68 µM. The TGI [16] was 9.05 µM, the TGI [17] was 11.4 µM and the TGI [18] was 3.71 µM. It also gave a TGI [56] of 16.7 µM, a TGI [19] of 7.25 µM and a TGI [20] of 20 µM. For the same compound, the TGI [57] was 14.2 µM, the TGI [21] was 3.61 µM and the TGI [23] was 3.22 µM. For the same compound, the TGI [24] was 3.52 µM, the TGI [58] was 20 µM and the TGI [25] was 5.1 µM. For the same compound, the TGI [26] was 5.52 µM, the TGI [27] was 7.3 µM and the TGI [28] was 3.34 µM. For the same compound, the TGI [29] was 18.8 µM, the TGI [30] was 35.4 µM and the TGI [31] was 5.46 µM. It also gave a TGI [32] of 6.99 µM, a TGI [34] of 16.2 µM and a TGI [35] of 5.89 µM. For the same compound, the TGI [36] was 3.55 µM, the TGI [37] was 21.6 µM and the TGI [38] was 3.51 µM. For the same compound, the TGI [39] was 13.4 µM, the TGI [40] was 4.31 µM and the TGI [41] was 4.67 µM. For the same compound, the TGI [42] was 5.34 µM, the TGI [43] was 17.8 µM and the TGI [45] was 6.2 µM. For the same compound, the TGI [59] was 4.57 µM, the TGI [46] was 4.07 µM and the TGI [47] was 3.59 µM. It also gave a TGI [48] of 7.5 µM, a TGI [49] of 18.7 µM and a TGI [50] of 5.35 µM. The TGI [51] was 6.4 µM, the TGI [52] was 28.3 µM and the TGI [53] was 5.25 µM. The TGI [54] was 12.1 µM.
